Experimental findings from ChEMBL document CHEMBL5241058, “Pyrazole-based analogs as potential antibacterial agents against methicillin-resistance staphylococcus aureus (MRSA) and its SAR elucidation” (Eur J Med Chem, 2021) are described below.

Values after ≈ are worked out from the molar mass of the structure shown.

Common to all, as to type: functional
The test system of test [1] is Staphylococcus aureus. In words: Antimicrobial activity against Methicillin-resistant Staphylococcus aureus CCARM 3506 assessed as bacterial growth inhibition incubated for 24 hrs by ELISA assay. On the technique in general: ELISA stands for enzyme-linked immunosorbent assay.
The subject of test [2] is Staphylococcus aureus. In words: Antimicrobial activity against Methicillin-resistant Staphylococcus aureus assessed as bacterial growth inhibition incubated for 24 to 48 hrs by microdilution method. Conditions: time 24-48 hrs. (Dilution methods test growth across graded concentrations, often in twofold steps.)
Test [3] concerns Staphylococcus aureus. Nature of the test: Antimicrobial activity against Methicillin-resistant Staphylococcus aureus ATCC 33599 assessed as bacterial growth inhibition.
In test [4] the test system is Staphylococcus aureus. Nature of the test: Antimicrobial activity against Methicillin-resistant Staphylococcus aureus assessed as bacterial growth inhibition.
The subject of test [5] is Staphylococcus aureus. Nature of the test: Antimicrobial activity against Staphylococcus aureus MTCC 96 assessed as bacterial growth inhibition incubated for 24 to 48 hrs. Conditions: time 24-48 hrs.
The subject of test [6] is Staphylococcus aureus. Nature of the test: Antimicrobial activity against Staphylococcus aureus MTCC 442 assessed as bacterial growth inhibition incubated for 24 to 48 hrs. Conditions: time 24-48 hrs.
Test [7] concerns Salmonella enterica subsp. enterica. Nature of the test: Antimicrobial activity against Salmonella typhimurium […] assessed as bacterial growth inhibition incubated for 18 hrs by microdilution method.
The subject of a further test is Escherichia coli. In words: Antimicrobial activity against Escherichia coli ATCC 8739 assessed as bacterial growth inhibition incubated for 18 hrs by microdilution method.
The test system of a further test is Pseudomonas aeruginosa. Nature of the test: Antimicrobial activity against Pseudomonas aeruginosa ATCC 27853 assessed as bacterial growth inhibition incubated for 18 hrs by microdilution method.
In a further test the test system is Klebsiella pneumoniae. Nature of the test: Antimicrobial activity against Klebsiella pneumoniae ATCC 314588 assessed as bacterial growth inhibition incubated for 18 hrs by microdilution method.
Test [8] concerns Staphylococcus aureus. In words: Antimicrobial activity against vancomycin intermediate-resistant Staphylococcus aureus assessed as bacterial growth inhibition incubated for 24 hrs by microdilution method.
Test [9] has as its system Staphylococcus aureus. Nature of the test: Antimicrobial activity against Methicillin-resistant Staphylococcus aureus ATCC 43300 assessed as bacterial growth inhibition by microdilution method.
The subject of test [10] is Staphylococcus aureus. In words: Antimicrobial activity against Methicillin-resistant Staphylococcus aureus ATCC 43300 assessed as bacterial growth inhibition incubated for 24 hrs by microdilution method. As to conditions: ATCC43300.
For test [11], the system named is Staphylococcus aureus. In words: Antibiofilm activity against Methicillin-resistant Staphylococcus aureus USA 300 relative to control.

The MIC is the least concentration at which growth counts as inhibited. With `Cc1ccc(Oc2c(C3N=C(N)NC(NCCc4ccccc4)=N3)c(C)nn2-c2ccc(Cl)cc2Cl)c(C)c1` (configuration not stated), the MIC in the test with Staphylococcus aureus [1] turned out to be 0.5 µg/mL (≈ 0.889 µM). Consider `NC(=O)c1cnn(-c2ccc([N+](=O)[O-])cc2[N+](=O)[O-])c1NC(=O)c1ccc(Cl)cc1`, for which the MIC in the test on Staphylococcus aureus [2] was 39 µg/mL (≈ 90.5 µM). Same read-out and setting: the result for `NC(=O)c1cnn(-c2ccc([N+](=O)[O-])cc2[N+](=O)[O-])c1NC(=O)c1ccc([N+](=O)[O-])cc1` reads 4 µg/mL (≈ 9.06 µM). By MBC is commonly meant the lowest tested concentration that kills the bacteria rather than only halting them. Take `O=C(O)c1ccc(-n2cc(/C=N/c3ccc(Cl)cc3Cl)c(-c3ccc4ccccc4c3)n2)cc1`: in the test with Staphylococcus aureus [3], the minimum bactericidal concentration (MBC) amounted to 6.25 µg/mL (≈ 12.9 µM) and the MIC was determined as 0.78 µg/mL (≈ 1.6 µM). As for `COc1ccc(C(=O)Nc2c(C(N)=O)cnn2-c2ccc([N+](=O)[O-])cc2[N+](=O)[O-])cc1`, the MIC in the test with Staphylococcus aureus [2] worked out at 10 µg/mL (≈ 23.5 µM).

For `CC1(C)S[C@@H]2[C@H](NC(=O)Cc3ccccc3)C(=O)N2[C@H]1C(=O)O` [PENICILLIN G], the minimal inhibitory concentration (MIC) in the test on Staphylococcus aureus [4] amounted to 0.06 µg/mL (≈ 0.179 µM). In the case of `Cc1onc(-c2ccccc2Cl)c1C(=O)N[C@@H]1C(=O)N2[C@@H]1SC(C)(C)[C@@H]2C(=O)O` [CLOXACILLIN], the minimum inhibitory concentration (MIC) in the test on Staphylococcus aureus [2] stood at 94 µg/mL (≈ 216 µM). Take `O=C(/C=C/c1ccc(F)cc1)N1N=C(c2ccncc2)OC1c1cn(-c2ccccc2)nc1-c1ccc(F)cc1` (configuration not stated): the MIC with Staphylococcus aureus [5] and in the test with Staphylococcus aureus [6] was 6.25 µg/mL (≈ 11.7 µM) in each case. Take `Cc1nn(-c2ccc(Cl)cc2Cl)c(Oc2cccc(C(F)(F)F)c2)c1C1N=C(N)NC(NCCc2ccccc2)=N1` (configuration not stated): the MIC with Staphylococcus aureus [1] is 0.5 µg/mL (≈ 0.83 µM).

As for `Oc1ccccc1-c1nn(-c2ccccc2)cc1-c1nc2ccccn2c1Cc1ccccc1`, the MIC (in test [7]; with Escherichia coli; in the test on Pseudomonas aeruginosa; with Klebsiella pneumoniae) was less than 1 µg/mL each time. `Cn1ncc2c3c(C#N)c4ccc(Br)cc4nc3ccc21`: the MIC in the test with Staphylococcus aureus [4] worked out at 2 µg/mL (≈ 5.93 µM). `O=C(c1cc(C(F)(F)F)n[nH]1)c1cc(Cl)cc(Cl)c1O`: in the test with Staphylococcus aureus [8], the MIC was less than 0.125 µg/mL. Turning to `COc1cccc(-c2nn(-c3ccccc3)cc2-c2nc3ccccn3c2Cc2ccccc2)c1OC`, the minimal inhibitory concentration (MIC) (in [7]; in the test with Escherichia coli; with Pseudomonas aeruginosa; with Klebsiella pneumoniae) was less than 1 µg/mL throughout. As to `O=C(/C=C/c1cccc(F)c1)N1N=C(c2ccncc2)OC1c1cn(-c2ccccc2)nc1-c1ccc(F)cc1` (configuration not stated), the MIC in the test on Staphylococcus aureus [5] and in the test with Staphylococcus aureus [6] was 25 µg/mL (≈ 46.9 µM) in each case. As to `O=C1S/C(=C\c2cn(-c3ccccc3)nc2-c2ccc(Cl)cc2)C(=O)N1CCCn1ccc2ccccc21`, in the test on Staphylococcus aureus [9], the MIC is greater than 50 µg/mL. With `Cc1nn(-c2ccccc2)c2c1C(C(=O)O)CC=C(C(=O)O)N2` (configuration not stated), the minimal inhibitory concentration (MIC) with Staphylococcus aureus [10] was greater than 500 µg/mL. As to `NC(=O)c1cnn(-c2ccc([N+](=O)[O-])cc2[N+](=O)[O-])c1NC(=O)c1ccccc1`, the minimal inhibitory concentration (MIC) in the test with Staphylococcus aureus [2] came to 75.3 µg/mL (≈ 190 µM). On to `O=C(c1cc(C(F)(F)F)n[nH]1)c1ccc(Cl)cc1O`, for which the MIC with Staphylococcus aureus [8] was less than 0.125 µg/mL. `CCCC#Cc1ccc(-n2ncc(/C(C)=N\NC(=N)N)c2C)cc1` registered an Activity with Staphylococcus aureus [11] of 74%.

With `O=C(/C=C/c1ccc([N+](=O)[O-])cc1)N1N=C(c2ccncc2)OC1c1cn(-c2ccccc2)nc1-c1ccc(F)cc1` (configuration not stated), the MIC in the test with Staphylococcus aureus [5] and with Staphylococcus aureus [6] was 12.5 µg/mL (≈ 22.3 µM) in each case. `Cc1nn(-c2ccc(Cl)cc2Cl)c(Oc2cccc(Cl)c2)c1C1N=C(N)NC(NCCc2ccccc2)=N1` (configuration not stated): the MIC in the test on Staphylococcus aureus [1] worked out at 0.5 µg/mL (≈ 0.879 µM).

Turning to `Cc1ccc(Oc2c(C3N=C(N)NC(NCCc4ccccc4)=N3)c(C)nn2-c2ccc(Cl)cc2Cl)cc1` (configuration not stated), the MIC in the test with Staphylococcus aureus [1] is 0.5 µg/mL (≈ 0.912 µM).

`Cc1nn(-c2ccc(Cl)cc2Cl)c(Oc2ccc(Br)cc2)c1C1N=C(N)NC(NCCc2ccccc2)=N1` (configuration not stated): the MIC in the test on Staphylococcus aureus [1] came out at 0.5 µg/mL (≈ 0.815 µM). In the case of `CCCn1ncc2c3c(C#N)c4ccccc4nc3ccc21`, in the test on Staphylococcus aureus [4], the minimum inhibitory concentration (MIC) is 3 µg/mL (≈ 10.5 µM). As to `Cc1cc(O)c(C(=O)c2cc(C(F)(F)F)n[nH]2)cc1Cl`, in the test with Staphylococcus aureus [8], the minimal inhibitory concentration (MIC) is less than 0.125 µg/mL.

For the molecule `O=C1S/C(=C\c2cn(-c3ccccc3)nc2-c2ccc([N+](=O)[O-])cc2)C(=O)N1CCCn1ccc2ccccc21`, in the test with Staphylococcus aureus [9], the minimum inhibitory concentration (MIC) was 12.5 µg/mL.

Regarding `Cc1ccc(C(=O)Nc2c(C(N)=O)cnn2-c2ccc([N+](=O)[O-])cc2[N+](=O)[O-])cc1`, the MIC in the test with Staphylococcus aureus [2] amounted to 42 µg/mL (≈ 102 µM). With `O=C(c1cc(C(F)(F)F)n[nH]1)c1cccc(Br)c1O`, the MIC in the test with Staphylococcus aureus [8] was less than 0.125 µg/mL. In the case of `O=C(N[C@H](CO)[C@H](O)c1ccc([N+](=O)[O-])cc1)C(Cl)Cl` [CHLORAMPHENICOL], the MIC in the test with Staphylococcus aureus [9] was found to be 50 µg/mL; in the test on Staphylococcus aureus [5], 50 µg/mL (≈ 155 µM); in the test with Staphylococcus aureus [6] it was 50 µg/mL (≈ 155 µM). For `C/C(=N/NC1=NCCN1)c1cnn(-c2ccc(C#CC(C)(C)C)cc2)c1C`, the Activity in the test with Staphylococcus aureus [11] is 62%. Take `Clc1ccc(-c2nn(-c3ccccc3)cc2-c2nc3ccccn3c2Cc2ccccc2)cc1`: the MIC (in test [7]; in the test with Escherichia coli; in the test on Pseudomonas aeruginosa; in the test with Klebsiella pneumoniae) was less than 1 µg/mL each time. In the test with Staphylococcus aureus [11], `C/C(=N/NC(=N)N)c1cnn(-c2ccc(C#Cc3ccccc3)cc2)c1C` had an Activity of 20%.
